Source: ChEMBL document CHEMBL1909046, “DrugMatrix in vitro pharmacology data”

Key:
Progesterone receptor = target: T1, Progesterone receptor (Bos taurus, UniProt Q690N0); assay: DRUGMATRIX: Progesterone radioligand binding (ligand: [3H] R-5020); format: tissue-based, Uterus; details: Not Active = under 50% inhibition at 10 µM
T1 sequence (Q690N0 whole entry): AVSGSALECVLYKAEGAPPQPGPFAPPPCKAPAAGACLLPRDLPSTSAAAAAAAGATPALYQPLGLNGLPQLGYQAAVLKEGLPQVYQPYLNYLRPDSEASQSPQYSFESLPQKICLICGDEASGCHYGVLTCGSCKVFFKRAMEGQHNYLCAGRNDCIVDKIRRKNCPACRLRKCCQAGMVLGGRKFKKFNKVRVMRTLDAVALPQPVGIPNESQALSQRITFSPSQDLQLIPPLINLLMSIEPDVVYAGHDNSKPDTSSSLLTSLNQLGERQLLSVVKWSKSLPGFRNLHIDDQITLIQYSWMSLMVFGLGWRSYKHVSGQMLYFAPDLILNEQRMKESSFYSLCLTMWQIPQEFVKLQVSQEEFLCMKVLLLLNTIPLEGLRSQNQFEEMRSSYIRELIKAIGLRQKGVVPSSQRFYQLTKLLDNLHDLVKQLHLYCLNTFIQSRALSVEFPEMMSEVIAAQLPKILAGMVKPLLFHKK

[1] = DRUGMATRIX: Glutamate, Kainate radioligand binding (ligand: [3H] Kainic acid); format: cell membranes, Rattus norvegicus, Wistar, Brain, Membrane; details: Not Active = under 50% inhibition at 10 µM
Leukotriene C4 synthase = target: T2, Leukotriene C4 synthase (Cavia porcellus, UniProt A6XA80); format: tissue-based, Lung;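 note: enzyme inhibition assay of leukotriene C4 synthase, using LTA4 as the substrate; in other assays of this panel Not Active means under 50% inhibition at 10 µM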
T2 sequence (A6XA80 whole entry): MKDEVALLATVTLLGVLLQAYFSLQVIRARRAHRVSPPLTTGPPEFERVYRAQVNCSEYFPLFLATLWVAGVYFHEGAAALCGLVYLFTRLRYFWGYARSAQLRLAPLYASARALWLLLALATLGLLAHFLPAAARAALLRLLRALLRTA

Carbonic anhydrase 2 = Carbonic anhydrase 2 (Homo sapiens, UniProt P00918); assay: DRUGMATRIX: Carbonic Anhydrase II enzyme inhibition (substrate: 4-Nitrophenyl acetate (4-NPA)); format: tissue-based; details: erythrocyte; Not Active = under 50% inhibition at 10 µM
Melanocortin receptor 3 = Melanocortin receptor 3 (Homo sapiens, UniProt P41968); format: cell membranes, HEK293, Membrane; details: hek293; note: in other assays of this panel Not Active means under 50% inhibition at 10 µM
Chain of Melanocortin receptor 3 (P41968 whole entry): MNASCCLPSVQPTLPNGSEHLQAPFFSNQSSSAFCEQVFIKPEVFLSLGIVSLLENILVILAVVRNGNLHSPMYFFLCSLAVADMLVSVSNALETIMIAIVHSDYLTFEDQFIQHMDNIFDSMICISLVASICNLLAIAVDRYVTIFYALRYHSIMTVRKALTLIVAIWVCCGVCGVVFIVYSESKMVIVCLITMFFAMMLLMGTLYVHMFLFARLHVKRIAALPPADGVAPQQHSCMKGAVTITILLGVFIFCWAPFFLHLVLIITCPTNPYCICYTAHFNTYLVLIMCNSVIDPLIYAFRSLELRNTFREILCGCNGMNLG

[2] = target: T3, Polyunsaturated fatty acid lipoxygenase ALOX15 (Oryctolagus cuniculus, UniProt P12530); assay: biochemical; format: tissue-based, Reticulocytes; details: reticulocytes;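 note: inhibition of 15-lipoxygenase enzyme activity measured with linoleic acid as the substrate; in other assays of this panel Not Active means under 50% inhibition at 10 µM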
T3 sequence (P12530 whole entry): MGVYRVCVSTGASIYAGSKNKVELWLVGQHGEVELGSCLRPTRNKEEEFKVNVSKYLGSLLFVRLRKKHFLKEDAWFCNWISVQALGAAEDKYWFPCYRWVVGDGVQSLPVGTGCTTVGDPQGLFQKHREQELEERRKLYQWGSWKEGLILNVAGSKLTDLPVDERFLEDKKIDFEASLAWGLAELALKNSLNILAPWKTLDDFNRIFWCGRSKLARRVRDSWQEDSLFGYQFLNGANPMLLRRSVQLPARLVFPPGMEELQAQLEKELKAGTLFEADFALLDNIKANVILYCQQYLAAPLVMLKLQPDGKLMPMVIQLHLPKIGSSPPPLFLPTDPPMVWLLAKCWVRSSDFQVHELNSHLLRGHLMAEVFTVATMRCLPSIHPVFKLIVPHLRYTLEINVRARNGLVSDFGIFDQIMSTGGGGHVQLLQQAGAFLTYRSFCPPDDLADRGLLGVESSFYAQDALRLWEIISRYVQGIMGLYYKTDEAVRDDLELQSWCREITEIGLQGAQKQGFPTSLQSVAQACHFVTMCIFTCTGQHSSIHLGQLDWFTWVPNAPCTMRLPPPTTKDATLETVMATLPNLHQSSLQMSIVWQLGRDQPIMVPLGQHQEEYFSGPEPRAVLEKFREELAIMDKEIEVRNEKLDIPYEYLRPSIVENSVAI

[3] = target: Beta-1 adrenergic receptor (Homo sapiens, UniProt P08588); assay: DRUGMATRIX: Adrenergic beta1 radioligand binding (ligand: [125I] Cyanopindolol); format: cell membranes, CHO-K1, Membrane; details: cho-k1; Not Active = under 50% inhibition at 10 µM
Chain of Beta-1 adrenergic receptor (P08588 whole entry): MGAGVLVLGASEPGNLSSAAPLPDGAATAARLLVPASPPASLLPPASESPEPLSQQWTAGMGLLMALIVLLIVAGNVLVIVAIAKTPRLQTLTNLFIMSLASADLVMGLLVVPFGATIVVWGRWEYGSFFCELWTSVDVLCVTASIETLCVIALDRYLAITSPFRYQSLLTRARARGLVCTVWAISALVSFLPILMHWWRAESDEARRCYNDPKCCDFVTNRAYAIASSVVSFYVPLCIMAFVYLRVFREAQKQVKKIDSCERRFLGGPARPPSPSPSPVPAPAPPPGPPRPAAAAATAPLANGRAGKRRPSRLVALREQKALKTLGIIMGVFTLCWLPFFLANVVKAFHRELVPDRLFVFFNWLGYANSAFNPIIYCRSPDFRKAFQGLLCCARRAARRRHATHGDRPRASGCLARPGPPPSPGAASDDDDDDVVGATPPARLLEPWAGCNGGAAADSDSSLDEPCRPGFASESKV

Cn1c(=O)c2nc[nH]c2n(C)c1=O.O [THEOPHYLLINE]
Not Active: IC50 (Progesterone receptor) | IC50 [1] | Ki [1] | IC50 (Leukotriene C4 synthase) | IC50 (Carbonic anhydrase 2) | IC50 (Melanocortin receptor 3) | IC50 [2] | IC50 [3]

CO[C@@H]1[C@@H](OC)[C@H](C)[C@@](O)(CC(=O)O)O[C@H]1[C@H](C)[C@H]1O[C@@]2(CC[C@@](C)([C@H]3CC[C@@](C)([C@@H]4O[C@@H]([C@H]5O[C@](C)(O)[C@H](C)C[C@@H]5C)C[C@@H]4O[C@@H]4C[C@H](OC)[C@@H](OC)[C@H](C)O4)O3)O2)C[C@H](O)[C@H]1C [MADURAMICIN ACID]
Not Active: IC50 (Progesterone receptor) | IC50 [1] | Ki [1] | IC50 (Leukotriene C4 synthase) | IC50 (Carbonic anhydrase 2) | IC50 (Melanocortin receptor 3) | IC50 [2] | IC50 [3]

SODIUM ORTHOVANAD
Not Active: IC50 (Progesterone receptor) | Ki (Progesterone receptor) | IC50 [1] | Ki [1] | IC50 (Leukotriene C4 synthase) | Ki (Leukotriene C4 synthase) | IC50 (Carbonic anhydrase 2) | Ki (Carbonic anhydrase 2) | IC50 (Melanocortin receptor 3) | Ki (Melanocortin receptor 3) | IC50 [2] | Ki [2] | IC50 [3] | Ki [3]

Cc1cccc(C)c1OCC(C)N (configuration not stated) [MEXILETINE]
Not Active: IC50 (Progesterone receptor) | IC50 [1] | Ki [1] | IC50 (Leukotriene C4 synthase) | IC50 (Carbonic anhydrase 2) | IC50 (Melanocortin receptor 3) | IC50 [2] | IC50 [3]

NC1CCN(c2nc3c(cc2F)c(=O)c(C(=O)O)cn3-c2ccc(F)cc2F)C1 (configuration not stated) [TOSUFLOXACIN]
Not Active: IC50 (Progesterone receptor) | IC50 [1] | Ki [1] | IC50 (Leukotriene C4 synthase) | IC50 (Carbonic anhydrase 2) | IC50 (Melanocortin receptor 3) | IC50 [2] | IC50 [3]

COc1ccc(CCN(C)CCCC(C#N)(c2ccc(OC)c(OC)c2)C(C)C)cc1OC (configuration not stated)
Not Active: IC50 (Progesterone receptor) | IC50 [1] | Ki [1] | IC50 (Leukotriene C4 synthase) | IC50 (Carbonic anhydrase 2) | IC50 (Melanocortin receptor 3) | IC50 [2] | IC50 [3]

O=C(Oc1ccccc1C(=O)O)c1ccccc1O [SALSALATE]
Not Active: IC50 (Progesterone receptor) | IC50 [1] | Ki [1] | IC50 (Leukotriene C4 synthase) | IC50 (Carbonic anhydrase 2) | IC50 (Melanocortin receptor 3) | IC50 [2] | IC50 [3]

NC(=O)N1C(=O)/C(=C(\O)c2cccs2)c2cc(Cl)ccc21 [TENIDAP]
Not Active: IC50 (Progesterone receptor) | IC50 [1] | Ki [1] | IC50 (Leukotriene C4 synthase) | IC50 (Carbonic anhydrase 2) | IC50 (Melanocortin receptor 3) | IC50 [2] | IC50 [3]

O=C1C(CC[S+]([O-])c2ccccc2)C(=O)N(c2ccccc2)N1c1ccccc1 (configuration not stated) [SULFINPYRAZONE]
Not Active: IC50 (Progesterone receptor) | IC50 [1] | Ki [1] | IC50 (Leukotriene C4 synthase) | IC50 (Carbonic anhydrase 2) | IC50 (Melanocortin receptor 3) | IC50 [2] | IC50 [3]

C[C@H]1C[C@@H]2[C@H]([C@@H](O)C[C@@]3(C)[C@H]2CC[C@]3(O)C(=O)CO)[C@@]2(C)C=CC(=O)C=C12 [METHYLPREDNISOLONE]
Not Active: IC50 (Progesterone receptor) | IC50 [1] | Ki [1] | IC50 (Leukotriene C4 synthase) | IC50 (Carbonic anhydrase 2) | IC50 (Melanocortin receptor 3) | IC50 [2] | IC50 [3]

N#Cc1ccc(C(c2ccc(C#N)cc2)n2cncn2)cc1 [LETROZOLE]
Not Active: IC50 (Progesterone receptor) | IC50 [1] | Ki [1] | IC50 (Leukotriene C4 synthase) | IC50 (Carbonic anhydrase 2) | IC50 (Melanocortin receptor 3) | IC50 [2] | IC50 [3]

O=C(O)c1cn(-c2ccc(F)cc2)c2cc(N3CCNCC3)c(F)cc2c1=O [SARAFLOXACIN]
Not Active: IC50 (Progesterone receptor) | IC50 [1] | Ki [1] | IC50 (Leukotriene C4 synthase) | IC50 (Carbonic anhydrase 2) | IC50 (Melanocortin receptor 3) | IC50 [2] | IC50 [3]
